The values that follow are results of earlier work, collected in US9625473B2, “Cytokine biomarkers as predictive biomarkers of clinical response for glatiramer acetate” (TEVA PHARMACEUTICAL INDUSTRIES LTD., priority 2010, dated 2017).

One data set relates to IL-4. As to conditions: after stimulation with GA, mediated predominantly by CD4 cells, GA-treated vs. untreated patients.
Another data set has as its system PBMC. The settings on record: GA-treated vs. untreated patients.
The test system of the next data set is IFN-gamma. The settings on record: after stimulation with high GA concentrations, partially mediated by CD8 cells, GA-treated vs. untreated patients.

On to Glatiramer acetate [GA], for which, in the data set with IL-4, the “IL-4 ELISPOT response” value is reported as “positive”. Moreover, in the data set on PBMC, the “GA-induced PBMC proliferation” value is on record as “significant reduction”. The “number of relapses, compared with placebo” value in the data set with RRMS subjects (RRMS subjects, GA 20 mg/day, three double-blind placebo-controlled studies) is “significant reduction”. Moreover, in the data set on RRMS subjects (daily standard dose of 20 mg), the tolerability result is “generally well tolerated”. Also, in the data set with RRMS subjects (largest controlled study, GA 20 mg vs placebo), the relapse rate reduction was 32%. The relapse rate in the data set with RRMS subjects (largest controlled study, under GA 20 mg) is 1.34. Moreover, in the data set on RRMS subjects (over 9 months of treatment, 20 mg group, MRI), the “median cumulative number of Gd-enhancing lesions” value was 11 lesions. Moreover, the IFN-gamma response result in the data set on IFN-gamma is given as “elevated”.
